Assay [1] has as its target T1, T315I Abl kinase (SEQ ID NO:2) (Homo sapiens, UniProt P00519, T315I).
T1 construct: purchased deCode Genetics
T1 sequence (P00519 with tags, fused parts or gaps T315I): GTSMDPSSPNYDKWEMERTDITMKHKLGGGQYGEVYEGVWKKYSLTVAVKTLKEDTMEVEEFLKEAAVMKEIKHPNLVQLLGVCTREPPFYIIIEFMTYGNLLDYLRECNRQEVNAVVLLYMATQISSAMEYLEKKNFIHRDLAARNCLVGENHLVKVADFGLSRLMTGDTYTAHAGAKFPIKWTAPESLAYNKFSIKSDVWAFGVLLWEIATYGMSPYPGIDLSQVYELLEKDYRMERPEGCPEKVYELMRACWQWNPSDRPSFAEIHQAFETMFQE
As to the kind of experiment: T315I Abl kinase assay (pyruvate kinase/lactate dehydrogenase coupled). Conditions: 1 h preincubation at 30° C., ATP 500 μM; read-out: Abl T315l Enzyme Assay, biochemical IC50. As for the experimental part:
Abl Kinase (SEQ ID NO:2) Assay
Activity of T315I Abl kinase (SEQ ID NO:2) was determined by following the production of ADP from the kinase reaction through coupling with the pyruvate kinase/lactate dehydrogenase system (e.g., Schindler, et al. Science (2000) 289, 1938-1942). In this assay, the oxidation of NADH (thus the decrease at A340nm) was continuously monitored spectrophometrically. The reaction mixture (100 μl) contained Abl kinase (4.4 nM. […] Abl from deCode Genetics), peptide substrate (EAIYAAPFAKKK, 0.2 mM), MgCl2 (10 mM), pyruvate kinase (4 units), lactate dehydrogenase (0.7 units), phosphoenol pyruvate (1 mM), and NADH (0.28 mM) in 90 mM Tris buffer containing 0.2% octyl-glucoside and 1% DMSO, pH 7.5. Test compounds were incubated with T315I Abl (SEQ ID NO:2) and other reaction reagents at 30° C. for 1 h before ATP (500 μM) was added to start the reaction. The absorption at 340 nm was monitored continuously for 2 hours at 30° C. on Polarstar Optima plate reader (BMG). The reaction rate was calculated using the 1.0 to 2.0 h time frame. Percent inhibition was obtained by comparison of reaction rate with that of a control (i.e. with no test compound). IC50 values were calculated from a series of percent inhibition values determined at a range of inhibitor concentrations using software routines as implemented in the GraphPad Prism software package.

The target in assay [2] is B-Raf(V600E) kinase (SEQ ID NO:11) (Homo sapiens, UniProt P15056, V600E). As to the kind of experiment: B-Raf(V600E) kinase assay (pyruvate kinase/lactate dehydrogenase coupled, MEK1 substrate). Conditions: 1 h preincubation at 30° C., ATP 0.2 mM; read-out: B-Raf V600E Enzyme Assay, biochemical IC50. Here is the method:
B-Raf(V600E) Kinase Assay
The activity of B-Raf(V600E) kinase (SEQ ID NO:11) was determined by following the formation of ADP from the reaction through coupling with the pyruvate kinase/lactate dehydrogenase system (e.g., Schindler, et al. Science (2000) 289, 1938-1942). In this assay, the oxidation of NADH (thus the decrease at A340nm) was continuously monitored spectrophotometrically. The reaction mixture (100 μl) contained B-Raf(V600E) kinase (0.34 nM nominal concentration, SEQ ID NO:11), unphosphorylated, full-length MEK1 (42 nM, SEQ ID NO:12), MgCl2 (13 mM), pyruvate kinase (3.5 units), lactate dehydrogenase (5.5 units), phosphoenolpyruvate (1 mM), and NADH (0.28 mM), in 60 mM Tris buffer, containing 0.13% octyl-glucoside and 3.5% DMSO concentration at pH 7.5. The test compounds were incubated with the reaction mixture at 30° C. for 1 h. The reaction was initiated by adding ATP (0.2 mM, final concentration). The absorption at 340 nm was continuously monitored for 3 h at 30° C. on a Polarstar Optima plate reader (BMG). The reaction rate was calculated using the 0.5 h to 1.5 h time frame. Percent inhibition was obtained by comparison of reaction rate with that of a control (i.e. with no test compound). IC50 values were calculated from a series of percent inhibition values determined at a range of inhibitor concentrations using software routines as implemented in the GraphPad Prism software package.

Assay [3] deals with T2, BaF3 cells transfected with wild type p210 BCR-Abl (Homo sapiens, UniProt P00519).
T2 construct: fused on or other part: P11274 (Breakpoint cluster region protein)
As to the kind of experiment: Ba/F3 p210 whole cell proliferation assay (Cell Titer Blue, 72 hours). The settings on record: 72 hours incubation; read-out: Ba/F3 p210 whole cell proliferation assay, antiproliferation IC50. Type of assay: cell-based. As for the experimental part:
(§1) BaF3 cells (parental or transfected with the following: wild type p210 BCR-Abl and T315I p210 BCR-Abl was obtained from Professor Richard Van Etten (New England Medical Center, Boston, Mass.). Briefly, cells were grown in RPMI 1640 supplemented with 10% characterized fetal bovine serum (HyClone, Logan, Utah) at 37 degrees Celsius, 5% CO2, 95% humidity. Cells were allowed to expand until reaching 80% saturation at which point they were subcultured or harvested for assay use.
(§2) A serial dilution of test compound was dispensed into a 96 well black clear bottom plate (Corning, Corning, N.Y.). For each cell line, three thousand cells were added per well in complete growth medium. Plates were incubated for 72 hours at 37 degrees Celsius, 5% CO2, 95% humidity. At the end of the incubation period Cell Titer Blue (Promega, Madison, Wis.) was added to each well and an additional 4.5 hour incubation at 37 degrees Celsius, 5% CO2, 95% humidity was performed. Plates were then read on a BMG Fluostar Optima (BMG, Durham, N.C.) using an excitation of 544 nm and an emission of 612 nm. Data was analyzed using Prism software (Graphpad, San Diego, Calif.) to calculate IC50's.
(In general: The colour change of resazurin is a common sign of viable cells or microbes.)

Assay [4] concerns the target T3, BaF3 cells transfected with T315I p210 BCR-Abl (Homo sapiens, UniProt P00519, T315I, cells depend on it).
T3 construct: fused on or other part: P11274 (Breakpoint cluster region protein)
As to the kind of experiment: Ba/F3 p210 T315I whole cell proliferation assay (Cell Titer Blue, 72 hours). Conditions: 72 hours incubation; read-out: Ba/F3 p210 T315I whole cell proliferation assay, antiproliferation IC50. Type of assay: cell-based. Here is the method:
as §1, §2

Structures can show the parent of a compound that is named as a salt.

Chain of B-Raf(V600E) kinase (SEQ ID NO:11) (P15056 with tags, fused parts or gaps V600E): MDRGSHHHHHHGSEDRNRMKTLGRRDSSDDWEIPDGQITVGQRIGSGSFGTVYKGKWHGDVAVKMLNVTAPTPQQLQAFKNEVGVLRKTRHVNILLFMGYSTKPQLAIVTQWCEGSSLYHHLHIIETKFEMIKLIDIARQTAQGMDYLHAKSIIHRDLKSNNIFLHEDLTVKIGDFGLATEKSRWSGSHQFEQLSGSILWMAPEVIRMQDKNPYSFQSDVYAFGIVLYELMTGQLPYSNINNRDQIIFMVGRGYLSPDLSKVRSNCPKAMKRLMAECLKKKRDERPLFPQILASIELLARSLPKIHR

What is called IC50 is the point on the concentration scale where inhibition reaches its midpoint. `Cc1ccc(-n2nc(C(C)C)cc2NC(=O)Nc2ccc(Oc3ccnc(-c4cnn(C)c4)c3)cc2F)cc1C#N` [Example 11, 1-(1-(3-cyano-4-methylphenyl)-3-isopropyl-1H-pyrazol-5-yl)-3-(2-fluoro-4-(2-(1-methyl-1H-pyrazol-4-yl)pyridin-4-yloxy)phenyl)urea]: the IC50 in assay [1] and in assay [2] was less than 0.1 µM throughout. Further, the GI50 in assay [3] and in assay [4] was less than 0.1 µM throughout.
On to `Cn1cc(-c2cc(Oc3ccc(NC(=O)Nc4cc(C(C)(C)C)nn4-c4cccc(C#N)c4)c(F)c3)ccn2)cn1` [Example 4, 1-(3-tert-butyl-1-(3-cyanophenyl)-1H-pyrazol-5-yl)-3-(2-fluoro-4-(2-(1-methyl-1H-pyrazol-4-yl)pyridin-4-yloxy)phenyl)urea hydrochloride], for which the IC50 in assay [1] and in assay [2] was less than 0.1 µM throughout. Also, the GI50 in assay [3] and in assay [4] was less than 0.1 µM throughout.
On to `CC(C)c1cc(NC(=O)Nc2ccc(Oc3ccnc(-c4cnn(C)c4)c3)cc2F)n(-c2ccc(F)c(C#N)c2)n1` [Example 5, 1-(1-(3-cyano-4-fluorophenyl)-3-isopropyl-1H-pyrazol-5-yl)-3-(2-fluoro-4-(2-(1-methyl-1H-pyrazol-4-yl)pyridin-4-yloxy)phenyl)urea], for which the IC50 in assay [1] and in assay [2] was less than 0.1 µM in each case. In addition, the GI50 in assay [3] and in assay [4] was less than 0.1 µM each time.
With `CC(C)c1cc(NC(=O)Nc2ccc(Oc3ccnc(-c4cnn(C)c4)c3)c(F)c2F)n(-c2cccc(C#N)c2)n1` [Example 13, 1-(1-(3-cyanophenyl)-3-isopropyl-1H-pyrazol-5-yl)-3-(2,3-difluoro-4-(2-(1-methyl-1H-pyrazol-4-yl)pyridin-4-yloxy)phenyl)urea], the 50% inhibitory concentration (IC50) in assay [1] and in assay [2] was less than 0.1 µM throughout. Besides, the GI50 in assay [3] and in assay [4] was less than 0.1 µM throughout.
Regarding `Cc1c(Oc2ccnc(-c3cnn(C)c3)c2)ccc(NC(=O)Nc2cc(C(C)C)nn2-c2cccc(C#N)c2)c1F` [Example 12, 1-(1-(3-cyanophenyl)-3-isopropyl-1H-pyrazol-5-yl)-3-(2-fluoro-3-methyl-4-(2-(1-methyl-1H-pyrazol-4-yl)pyridin-4-yloxy)phenyl)urea], the IC50 in assay [1] and in assay [2] was less than 0.1 µM each time. Besides, the GI50 in assay [3] and in assay [4] was less than 0.1 µM in each case.
Take `CCc1cc(NC(=O)Nc2ccc(Oc3ccnc(-c4cnn(C(C)C)c4)c3)cc2F)n(-c2cccc(C#N)c2)n1` [Example 17, 1-(1-(3-cyanophenyl)-3-ethyl-1H-pyrazol-5-yl)-3-(2-fluoro-4-(2-(1-isopropyl-1H-pyrazol-4-yl)pyridin-4-yloxy)phenyl)urea]: the IC50 was less than 0.1 µM in assay [1] and less than 10 µM in assay [2]. Besides, the GI50 in assay [3] and in assay [4] was less than 0.1 µM each time.
`Cn1cc(-c2cc(Oc3ccc(NC(=O)Nc4cc(C(C)(C)C)nn4-c4ccc(CO)cc4)c(F)c3)ccn2)cn1` [Example 8, 1-(3-tert-butyl-1-(4-(hydroxymethyl)phenyl)-1H-pyrazol-5-yl)-3-(2-fluoro-4-(2-(1-methyl-1H-pyrazol-4-yl)pyridin-4-yloxy)phenyl)urea]: the 50% inhibitory concentration (IC50) in assay [1] and in assay [2] was less than 0.1 µM each time. Also, the GI50 in assay [3] and in assay [4] was less than 0.1 µM in each case.
On to `CC(C)n1cc(NC(=O)Nc2ccc(Oc3ccnc(-c4cnn(C)c4)c3)cc2F)c(-c2ccccc2)n1` [Example 21, 1-(2-fluoro-4-(2-(1-methyl-1H-pyrazol-4-yl)pyridin-4-yloxy)phenyl)-3-(1-isopropyl-3-phenyl-1H-pyrazol-4-yl)urea], for which the IC50 in assay [1] was less than 0.1 µM; in assay [2], less than 1 µM. The GI50 in assay [3] and in assay [4] was less than 0.1 µM in each case.
On to “1-(2-tert-butyl-4-(pyridin-3-yl)pyrimidin-5-yl)-3-(2-fluoro-5-(8-methyl-2-(methylamino)-7-oxo-7,8-dihydropyrido[2,3-d]pyrimidin-6-yl)phenyl)urea [Example 10]”, for which the IC50 in assay [1] is less than 100 µM; in assay [2] it was less than 1 µM. For the same molecule, the GI50 in assay [3] and in assay [4] was less than 0.1 µM throughout.
Regarding `CCc1cc(NC(=O)Nc2ccc(Oc3ccnc(-c4cnn(C)c4)c3)cc2F)n(-c2cccc(C#N)c2)n1` [Example 9, 1-(1-(3-cyanophenyl)-3-ethyl-1H-pyrazol-5-yl)-3-(2-fluoro-4-(2-(1-methyl-1H-pyrazol-4-yl)pyridin-4-yloxy)phenyl)urea], the 50% inhibitory concentration (IC50) was less than 0.1 µM in assay [1] and less than 1 µM in assay [2]. In addition, the GI50 in assay [3] and in assay [4] was less than 0.1 µM in each case.
`CCc1cc(NC(=O)Nc2ccc(Oc3ccnc(-c4cnn(C)c4)c3)cc2F)n(-c2ccc(CO)cc2)n1` [Example 19, 1-(3-ethyl-1-(4-(hydroxymethyl)phenyl)-1H-pyrazol-5-yl)-3-(2-fluoro-4-(2-(1-methyl-1H-pyrazol-4-yl)pyridin-4-yloxy)phenyl)urea]: the IC50 is less than 0.1 µM in assay [1] and less than 1 µM in assay [2]. In addition, the GI50 in assay [3] and in assay [4] was less than 0.1 µM throughout.
Turning to `CC(C)c1cc(NC(=O)Nc2ccc(Oc3ccnc(-c4cnn(C)c4)c3)cc2F)n(-c2cccc(F)c2)n1` [Example 24, 1-(2-fluoro-4-(2-(1-methyl-1H-pyrazol-4-yl)pyridin-4-yloxy)phenyl)-3-(1-(3-fluorophenyl)-3-isopropyl-1H-pyrazol-5-yl)urea], the IC50 in assay [1] and in assay [2] was less than 0.1 µM throughout. For the same molecule, the GI50 in assay [3] and in assay [4] was less than 0.1 µM throughout.
With `CC(C)c1cc(NC(=O)Nc2ccc(Oc3ccnc(-c4cnn(C)c4)c3)cc2F)n(-c2cccc(C#N)c2)n1` [Example 2, 1-(1-(3-cyanophenyl)-3-isopropyl-1H-pyrazol-5-yl)-3-(2-fluoro-4-(2-(1-methyl-1H-pyrazol-4-yl)pyridin-4-yloxy)phenyl)urea], the 50% inhibitory concentration (IC50) in assay [1] and in assay [2] was less than 0.1 µM in each case. Also, the GI50 in assay [3] and in assay [4] was less than 0.1 µM in each case.

The values are drawn from US20080269267A1, “KINASE INHIBITORS USEFUL FOR THE TREATMENT OF MYLEOPROLIFIC DISEASES AND OTHER PROLIFERATIVE DISEASES” (Deciphera Pharmaceuticals, LLC, priority 2007, published 2008).
